US12491252B2, “Substituted 3-amino-5-phenylbenzamide compounds as covalent inhibitors of enhancer zeste homolog 2 (EZH2) and proteolysis-targeting chimeric derivatives thereof (PROTACs) that induce degradation of EZH2” (Northwestern University, priority 2021, dated 2025)
Where two headings read alike, the source gives them in different places.

Legend:
[1] = tested on: prostate cancer cell lines; test: WST-1 cell proliferation in multiple prostate cancer cell lines; assay type: cell-based; conditions: WST-1 Kit
Method: (§1) Cell proliferation was measured using WST-1 Kit (Clontech) according to manufacturer's protocol.

EZH2 [2] = biological target: T1, EZH2 (Homo sapiens, UniProt Q15910); test: Ubiquitination of EZH2 in C4-2B cells with MG132; assay type: cell-based; conditions: FIG. 15B, plus proteasome inhibitor MG132
T1 sequence (Q15910 whole entry): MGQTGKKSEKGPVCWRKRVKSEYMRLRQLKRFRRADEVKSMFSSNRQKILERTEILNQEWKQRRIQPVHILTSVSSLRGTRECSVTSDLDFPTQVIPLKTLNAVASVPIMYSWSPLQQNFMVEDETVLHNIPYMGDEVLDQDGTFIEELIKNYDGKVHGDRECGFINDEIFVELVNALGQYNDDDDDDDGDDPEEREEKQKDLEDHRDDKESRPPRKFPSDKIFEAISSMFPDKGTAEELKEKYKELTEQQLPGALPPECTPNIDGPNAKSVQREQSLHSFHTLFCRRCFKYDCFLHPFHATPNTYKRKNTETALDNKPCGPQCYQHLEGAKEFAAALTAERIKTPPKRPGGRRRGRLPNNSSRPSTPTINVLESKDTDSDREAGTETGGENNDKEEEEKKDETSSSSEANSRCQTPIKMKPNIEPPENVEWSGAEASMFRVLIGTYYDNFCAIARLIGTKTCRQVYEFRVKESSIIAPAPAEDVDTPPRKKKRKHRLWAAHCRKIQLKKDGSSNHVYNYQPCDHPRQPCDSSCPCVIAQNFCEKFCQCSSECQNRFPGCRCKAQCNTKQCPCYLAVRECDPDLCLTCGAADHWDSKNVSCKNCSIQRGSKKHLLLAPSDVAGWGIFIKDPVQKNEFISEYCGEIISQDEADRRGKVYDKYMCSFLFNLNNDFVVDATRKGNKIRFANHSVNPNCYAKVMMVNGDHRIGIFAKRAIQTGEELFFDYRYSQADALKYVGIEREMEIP
T1 sequence (Q15022 whole entry partner): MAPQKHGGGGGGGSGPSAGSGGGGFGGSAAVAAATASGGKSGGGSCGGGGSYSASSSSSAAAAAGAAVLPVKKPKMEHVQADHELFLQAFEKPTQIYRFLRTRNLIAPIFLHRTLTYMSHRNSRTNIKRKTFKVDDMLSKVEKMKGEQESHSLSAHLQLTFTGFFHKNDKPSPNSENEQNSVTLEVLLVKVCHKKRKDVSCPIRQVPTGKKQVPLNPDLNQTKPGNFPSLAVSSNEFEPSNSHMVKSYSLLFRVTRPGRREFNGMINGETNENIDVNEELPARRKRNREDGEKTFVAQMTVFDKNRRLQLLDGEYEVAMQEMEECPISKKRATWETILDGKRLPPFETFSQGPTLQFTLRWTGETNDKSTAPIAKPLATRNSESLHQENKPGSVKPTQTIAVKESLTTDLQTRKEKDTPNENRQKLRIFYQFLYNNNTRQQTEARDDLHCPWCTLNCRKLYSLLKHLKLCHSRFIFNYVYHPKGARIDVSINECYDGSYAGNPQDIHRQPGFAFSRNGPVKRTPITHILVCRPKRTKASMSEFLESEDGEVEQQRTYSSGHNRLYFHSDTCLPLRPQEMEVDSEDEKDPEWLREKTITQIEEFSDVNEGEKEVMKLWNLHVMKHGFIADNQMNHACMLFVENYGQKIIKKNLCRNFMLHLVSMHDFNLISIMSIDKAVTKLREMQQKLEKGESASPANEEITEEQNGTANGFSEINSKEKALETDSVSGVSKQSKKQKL
T1 sequence (O75530 whole entry partner): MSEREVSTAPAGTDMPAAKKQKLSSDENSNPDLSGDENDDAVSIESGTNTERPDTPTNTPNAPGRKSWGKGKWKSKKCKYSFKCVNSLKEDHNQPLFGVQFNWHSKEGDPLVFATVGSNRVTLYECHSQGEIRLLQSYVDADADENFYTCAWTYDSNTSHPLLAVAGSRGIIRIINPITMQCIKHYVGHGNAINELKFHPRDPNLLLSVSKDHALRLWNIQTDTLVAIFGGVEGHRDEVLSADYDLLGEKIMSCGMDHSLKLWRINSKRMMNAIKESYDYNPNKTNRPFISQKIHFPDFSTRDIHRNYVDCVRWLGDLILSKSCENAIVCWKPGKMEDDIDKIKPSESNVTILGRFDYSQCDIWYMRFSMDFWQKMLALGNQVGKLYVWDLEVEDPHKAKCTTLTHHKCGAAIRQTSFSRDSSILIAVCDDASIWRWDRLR

EZH2 [3] = test: Western blot of EZH2 in SU-DHL6 cells; assay type: cell-based; conditions: FIG. 33, 48 hours
EZH2 [4] = biological target: T1, EZH2; test: Western blot of EZH2 with esiRNA knockdown of VHL or siRNA control; assay type: cell-based; conditions: FIG. 16, duplicate
Method: FIG. 16. Cells were treated with indicated compounds with either esiRNA knockdown of VHL or siRNA control (no EZH2 knockdown) and blotted for EZH2 and VHL. […] Experiment was run in duplicate with both replicates shown on the left and right sides.

[5] = Pharmacokinetics in mice, IP cassette dosing, plasma LC/MS/MS; assay type: in vivo, C57Bl/6 mouse; conditions: mouse, C57Bl/6 mice, 4 mg/kg IP, cassette format
Method: FIG. 35. Pharmacokinetics of indicated compounds. Compounds were administered to C57Bl/6 mouse mice at 4 mg/kg using intraperitoneal (IP) injection in cassette format. Plasma was collected at the indicated time points and analyzed by LC/MS/MS using standard methods.
For assessing pharmacokinetics, compounds were administered to C57Bl/6 mouse mice at 4 mg/kg using intraperitoneal (IP) injection in cassette format. Plasma was collected at the indicated time points and analyzed by LC/MS/MS using standard methods.

SUZ12 [6] = test: Western blot of SUZ12 in C4-2B cells; assay type: cell-based; conditions: FIG. 14, 10 μM for 6 days
22Rv1 cells [7] = test: WST cell viability assay in 22Rv1 cells; assay type: cell-based
Method: as §1

22Rv1 cells [8] = test: Cell titer glo cell viability assay in 22Rv1 cells; assay type: cell-based
SU-DHL6 cells = test: WST cell viability assay in SU-DHL6 cells; assay type: cell-based
Method: as §1

lymphoma cell lines = test: WST-1 cell proliferation in multiple lymphoma cell lines; assay type: cell-based; conditions: WST-1 Kit
Method: as §1

LNCaP cells [9] = test: Live imaging cell proliferation of LNCaP cells; assay type: cell-based; conditions: FIG. 17A, monitored over 168 hours
Source text: FIG. 17A-17B. (FIG. 17A) Live imaging cell proliferation of LNCaP cells. […] DMSO is set as the negative control. […] (FIG. 17B) Colony assays using LnCaP cells after treatment with the indicated compounds for 7 days.

EZH2 [10] = test: Western blot of EZH2 in SU-DHL4 cells; assay type: cell-based; conditions: FIG. 33, 48 hours
EED [11] = test: Western blot of EED in SU-DHL6 cells; assay type: cell-based; conditions: FIG. 33, 48 hours
Method: (§2) FIG. 33. […] Cell were treated for 48 hours with the indicated concentrations of compounds.

LNCaP cells [12] = test: WST cell proliferation/viability assay in LNCaP cells; assay type: cell-based
Method: FIG. 19A-19B. (FIG. 19A) WST cell proliferation assay of indicated compounds in LNCaP cells. […] (FIG. 19B) Effects of indicated compounds on EZH2, AR, and FOXA1 by western blot at 1 μM in LNCaP cells.
as §1

EZH2 [13] = biological target: T1, EZH2; test: Western blot of EZH2 protein in PC3 cells; conditions: FIG. 26, 6 days treatment
Source text: (Upper right western blot) Western blot analysis of EZH2 protein in PC3 cells after 6 days treatment.

C4-2B cells [14] = test: Imaging of C4-2B cells (cell density); assay type: cell-based; conditions: FIG. 21, 12 days' treatment
Source text: FIG. 21. Imaging of C4-2B cells after 12 days' treatment with the indicated compounds.

SUZ12 [15] = test: Western blot of SUZ12 in SU-DHL4 cells; assay type: cell-based; conditions: FIG. 33, 48 hours
Method: as §2

H3K27me3 = test: Western blot of H3K27me3 levels in C4-2B cells; assay type: cell-based; conditions: FIG. 14, 10 μM for 6 days
C4-2B cells [16] = test: Colony assay using C4-2B cells; assay type: cell-based; conditions: FIG. 20B, treatment for 7 days
Method: FIG. 20A-20B. (FIG. 20A) Live imaging cell proliferation of C4-2B cells. Cells were treated with indicated compounds and monitored over 168 hours for proliferation by phase object confluence. DMSO is set as the negative control. […] (FIG. 20B) Colony assays using C4-2B cells after treatment with the indicated compounds for 7 days.

LNCaP cells [17] = test: Imaging of LnCaP cells (cell density); assay type: cell-based; conditions: FIG. 18, 12 days' treatment
Source text: FIG. 18. Imaging of LnCaP cells after 12 days' treatment with the indicated compounds.

EED [18] = test: Western blot of EED in SU-DHL4 cells; assay type: cell-based; conditions: FIG. 33, 48 hours
Method: as §2

EZH2 [19] = biological target: T1, EZH2; test: Western blot of EZH2 protein in DU-145 cells; conditions: FIG. 27, 6 days treatment
Source text: (Upper right western blot) Western blot analysis of EZH2 protein in DU-145 cells after 6 days treatment.

LNCaP cells [20] = test: Colony assay using LnCaP cells; assay type: cell-based; conditions: FIG. 17B, treatment for 7 days
Method: FIG. 17A-17B. (FIG. 17A) Live imaging cell proliferation of LNCaP cells. Cells were treated with indicated compounds and monitored over 168 hours for proliferation by phase object confluence. DMSO is set as the negative control. […] (FIG. 17B) Colony assays using LnCaP cells after treatment with the indicated compounds for 7 days.

SU-DHL4 cells = test: WST cell viability assay in SU-DHL4 cells; assay type: cell-based; conditions: for IC50: Homo sapiens, variable slope, read-out: IC50 (best-fit value)
Method: as §1

EZH2 [21] = biological target: T1, EZH2; test: Western blot of EZH2 protein in C4-2B cells
C4-2B cells [22] = test: WST cell proliferation assay in C4-2B cells; assay type: cell-based; conditions: FIG. 22, 6 days
Method: FIG. 22A-22B. WST cell proliferation assay of indicated compounds in C4-2B cells. Cells were treated for 6 days. […] (FIG. 19B) Effects of indicated compounds on EZH2, AR, and FOXA1 by western blot at 1 μM in C4-2B cells.
as §1

C4-2B cells [23] = test: Live imaging cell proliferation of C4-2B cells; assay type: cell-based; conditions: FIG. 20A, monitored over 168 hours
Source text: FIG. 20A-20B. (FIG. 20A) Live imaging cell proliferation of C4-2B cells. […] DMSO is set as the negative control. […] (FIG. 20B) Colony assays using C4-2B cells after treatment with the indicated compounds for 7 days.

SUZ12 [24] = test: Western blot of SUZ12 in SU-DHL6 cells; assay type: cell-based; conditions: FIG. 33, 48 hours
Method: as §2

[25] = Table 9, WST1 within 1 μM on SU-DHL4 (as titled)

CCN(c1cc(-c2ccc(CN3CCN(C(=O)CCCCCCCCCC(=O)N[C@H](C(=O)N4C[C@H](O)C[C@H]4C(=O)NCc4ccc(-c5scnc5C)cc4)C(C)(C)C)CC3)cc2)cc(C(=O)NCc2c(C)cc(C)[nH]c2=O)c1C)C1CCOCC1 [Compound 6272]
Inhibition of cell proliferation versus EPZ-6438 [1]: more potent and effective at inhibiting cell proliferation than the catalytic EZH2 inhibitor EPZ-6438
Degree of ubiquitination of EZH2 (EZH2 [2]): much greater degree of ubiquitination of EZH2 than the inactive compound 6286
Degradation of EZH2 (EZH2 [3]): significant degradation
Ability to degrade EZH2 with esiRNA knockdown of VHL (EZH2 [4]; VHL knockdown): inhibition of the ability of active compounds 6272 to degrade EZH2
Ability to degrade EZH2 with siRNA control (VHL present) (EZH2 [4]; siRNA control lane): able to strongly degrade EZH2
half-life [5]: 3.5 to 6 h
Reduction of PRC2 component SUZ12 (SUZ12 [6]): reduction of PRC2 component SUZ12
Anti-proliferative effect (WST cell viability) (22Rv1 cells [7]; FIG. 24, 22Rv1, 5 days' treatment, concentration range): greater anti-proliferative effect than EPZ-6438
IC50 (22Rv1 cells [7]; Homo sapiens, Table 4, WST1 cell viability with different doses on 22Rv1, read-out: IC50 (best-fit value)): 1.33 µM
Anti-proliferative effect (Cell titer glo cell viability) (22Rv1 cells [8]; FIG. 25, 22Rv1, 5 days' treatment, concentration range): greater anti-proliferative effect than EPZ-6438
IC50 (22Rv1 cells [8]; Homo sapiens, Table 5, Cell titer glo test cell viability with different doses on 22Rv1, read-out: IC50 (best-fit value)): 0.692 µM
Anti-proliferative effect (WST cell viability) (SU-DHL6 cells; FIG. 30, SU-DHL6, 4 days' treatment): greater anti-proliferative effect than EPZ-6438
Anti-proliferative effect (WST cell viability) at 1 μM (SU-DHL6 cells; FIG. 32, SU-DHL6, 4 days' treatment, 1 μM): greater anti-proliferative effect than EPZ-6438
IC50 (SU-DHL6 cells; Homo sapiens, SU-DHL-6, Table 7, WST1 test cell viability with higher dose on SU-DHL6, variable slope, read-out: IC50 (best-fit value)): 0.892 µM
Inhibition of cell proliferation versus EPZ-6438 (lymphoma cell lines): more potent and effective at inhibiting cell proliferation than the catalytic EZH2 inhibitor EPZ-6438
Cell proliferation by phase object confluence (LNCaP cells [9]): greatest ability to decrease LnCaP proliferation
Degradation of EZH2 (EZH2 [10]): significant degradation
Degradation of EED (EED [11]): significant degradation
Inhibition of proliferation (WST) (LNCaP cells [12]; FIG. 19A, LNCaP, 6 days): similarly potent effects on inhibiting the proliferation
Anti-proliferative effect (WST cell viability) (LNCaP cells [12]; FIG. 23, LNCaP, 5 days' treatment, concentration range): greater anti-proliferative effect than EPZ-6438
IC50 (LNCaP cells [12]; Homo sapiens, Table 3, WST1 test cell viability on LNCaP, [Inhibitor] vs. normalized response, read-out: IC50 (best-fit value)): 0.759 µM
EZH2 protein (western blot) (EZH2 [13]): significant reduction in EZH2
Cell density by imaging (C4-2B cells [14]): significant reduction in the cell density
Degradation of SUZ12 (SUZ12 [15]): significant degradation
H3K27me3 levels (H3K27me3): reduced H3K27me3 levels
Colonies (C4-2B cells [16]): significant reduction in the colonies
Cell density by imaging (LNCaP cells [17]): significant reduction in the cell density
Degradation of EED (EED [18]): significant degradation
EZH2 protein (western blot) (EZH2 [19]): significant reduction in EZH2
Colonies (LNCaP cells [20]): significant reduction in the colonies
Anti-proliferative effect (WST cell viability) (SU-DHL4 cells; FIG. 29, SU-DHL4, 4 days' treatment): greater anti-proliferative effect than EPZ-6438
IC50 (SU-DHL4 cells; SU-DHL-4, Table 8, WST1 test cell viability within 1 μM on SU-DHL4): 2.5 µM
IC50 (SU-DHL4 cells; SU-DHL-4, Table 9, WST1 test cell viability within 1 μM on SU-DHL4 (as titled)): 0.337 µM
HillSlope (best-fit value) (SU-DHL4 cells; Table 6, WST1 with higher dose on SU-DHL4): −0.093
HillSlope (best-fit value) (SU-DHL4 cells; Table 8, WST1 within 1 μM on SU-DHL4): −0.2858
HillSlope (best-fit value) (SU-DHL4 cells; [25]): −1.235
logIC50 (best-fit value) (SU-DHL4 cells; [25]): −0.4722
Degrading EZH2 protein at nM doses, versus 2304 (EZH2 [21]; FIG. 10, 24 hours): more effective than 2304
Degradation of EZH2 (EZH2 [21]; FIG. 14, 10 μM for 6 days): strong degradation of EZH2
Inhibition of proliferation (WST) (C4-2B cells [22]): similarly potent effects on inhibiting the proliferation
Cell proliferation by phase object confluence (C4-2B cells [23]): decrease C4-2B proliferation
Degradation of SUZ12 (SUZ12 [24]): significant degradation
